From patent publication US20260297080A1, “BICYCLIC COMPOUNDS AS CDK INHIBITORS” (BeOne Medicines I GmbH, priority 2022, published 2026) come the findings set out here.

For one assay, the target named is CDK1/Cyclin B1 (Homo sapiens, UniProt P06493). Put plainly: CDK1/Cyclin B1 Biochemical Assay (TR-FRET), 1 mM ATP. Particulars: 0.15 μM Rb (Ser780)-biotin substrate, pH7.0, 60 min preincubation, 90 min reaction, room temperature. On the procedure:
(§1) CDK2/Cyclin E1 and CDK1/Cyclin B1 Biochemical Assays
(§2) Compounds disclosed herein were tested for inhibition of CDK2/Cyclin E1 or CDK1/Cyclin B1 kinase in an assay based on the time-resolved fluorescence-resonance energy transfer (TR-FRET) methodology. The assay was carried out in 384-well low volume black plates in a reaction mixture containing CDK2/Cyclin E1 or CDK1/Cyclin B1, 1 mM ATP for CDK2/Cyclin E1 and CDK1/Cyclin B1, 0.15 μM Rb (Ser780)-biotin substrate and 0-10 μM compound in buffer containing 50 mM HEPES pH7.0, 0.02% NaN3, 0.01% BSA, 0.1 mM Orthovanadate, 50 mM MgCl2, 1 mM DTT and 0.005% Tween-20. The kinase was incubated with compound for 60 minutes at room temperature and the reaction was initiated by the addition of ATP and Rb (Ser780)-biotin substrate. After reaction at room temperature for 90 minutes, an equal volume of stop/detection solution was added according to the manufacture's instruction (Cisbio Bioassays). The stop/detection solution contained Streptavidin-XL665 and Anti-pRb (Ser780) mAb-Eu Cryptate in Detection buffer (Cisbio Bioassays). Plates were incubated at room temperature for 60 minutes, and the TR-FRET signals (ex337 nm, em665 nm/620 nm) were recorded on a PHERAstar FSX plate reader (BMG Labtech). The inhibition percentage of CDK2/Cyclin E1 or CDK1/Cyclin B1 kinase activity in presence of increasing concentrations of compounds was calculated based on the ratio of fluorescence at 665 nm to that at 620 nm. The IC50 for each compound was derived from fitting the data to the four-parameter logistic equation by Dotmatics.
(TR-FRET usually uses a lanthanide donor and a delayed reading to cut background.)

A further assay addresses CDK2/Cyclin E1 (Homo sapiens, UniProt P24941). The experiment in a line: CDK2/Cyclin E1 Biochemical Assay (TR-FRET), 1 mM ATP. Particulars: 0.15 μM Rb (Ser780)-biotin substrate, pH7.0, 60 min preincubation, 90 min reaction, room temperature. On the procedure:
as §1, §2

Sequence of CDK1/Cyclin B1 (P06493 whole entry): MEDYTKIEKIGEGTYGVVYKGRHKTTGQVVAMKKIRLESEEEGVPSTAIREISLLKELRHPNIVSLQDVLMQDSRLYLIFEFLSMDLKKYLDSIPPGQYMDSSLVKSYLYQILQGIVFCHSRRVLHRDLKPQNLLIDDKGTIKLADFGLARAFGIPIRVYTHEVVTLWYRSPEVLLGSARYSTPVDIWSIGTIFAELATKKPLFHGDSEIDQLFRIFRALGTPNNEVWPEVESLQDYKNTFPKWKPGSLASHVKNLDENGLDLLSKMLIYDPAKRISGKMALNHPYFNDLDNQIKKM
Sequence of CDK1/Cyclin B1 (P14635 whole entry partner): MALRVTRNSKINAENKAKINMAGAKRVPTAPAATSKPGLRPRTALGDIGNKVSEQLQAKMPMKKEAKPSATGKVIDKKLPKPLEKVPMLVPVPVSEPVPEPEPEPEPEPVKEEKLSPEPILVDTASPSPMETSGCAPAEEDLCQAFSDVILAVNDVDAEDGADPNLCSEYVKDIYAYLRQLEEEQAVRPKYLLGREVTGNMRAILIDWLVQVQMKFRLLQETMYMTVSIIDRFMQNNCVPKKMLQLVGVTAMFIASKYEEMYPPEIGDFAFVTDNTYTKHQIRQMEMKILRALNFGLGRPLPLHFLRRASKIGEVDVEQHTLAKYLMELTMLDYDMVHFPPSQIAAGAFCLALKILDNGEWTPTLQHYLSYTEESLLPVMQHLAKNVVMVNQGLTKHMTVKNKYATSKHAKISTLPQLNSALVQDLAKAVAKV

For the compound `CCNC(=O)O[C@H]1CC[C@@H](c2cc(Nc3cc4c(cc3F)S(=O)(=O)NC4)n[nH]2)C1` (relative stereo) [Example 421, cis-3-(3-((6-fluoro-1,1-dioxido-2,3-dihydrobenzo[d]isothiazol-5-yl)amino)-1H-pyrazol-5-yl)cyclopentyl ethylcarbamate], the figures for the IC50 against CDK1/Cyclin B1 and at CDK2/Cyclin E1 were more than 10000 nM and 135 nM, respectively.
`CC1(NC(=O)O[C@@H]2CC[C@H](c3cc(Nc4ccc5c(c4F)CS(=O)(=O)N5)n[nH]3)C2)CCC1` (single isomer, unassigned) [Example 427a]: the figures for the IC50 at CDK1/Cyclin B1 and at CDK2/Cyclin E1 were 145 nM and 1.1 nM, respectively.
Regarding `O=C(NC12CC(C1)C2)O[C@H]1CC[C@@H](c2cc(Nc3cc4c(cc3F)S(=O)(=O)NC4)n[nH]2)C1` (single isomer, unassigned) [Example 422a, cis-3-(3-((6-fluoro-1,1-dioxido-2,3-dihydrobenzo[d]isothiazol-5-yl)amino)-1H-pyrazol-5-yl)cyclopentyl bicyclo[1.1.1]pentan-1-ylcarbamate], the IC50 (commonly the concentration at which inhibition is half-maximal) against CDK1/Cyclin B1 stood at 3250 nM; against CDK2/Cyclin E1 it was 2.3 nM.
`CN(C(=O)O[C@H]1CC[C@@H](c2cc(Nc3cc4c(cc3F)S(=O)(=O)NC4)n[nH]2)C1)C1CCOC1` (relative stereo) [Example 440, cis-3-(3-((6-fluoro-1,1-dioxido-2,3-dihydrobenzo[d]isothiazol-5-yl)amino)-1H-pyrazol-5-yl)cyclopentyl methyl(tetrahydrofuran-3-yl)carbamate]: the figures for the IC50 against CDK1/Cyclin B1 and against CDK2/Cyclin E1 were more than 10000 nM and 189 nM, respectively.
As for `O=C(NCCC(F)(F)F)O[C@H]1CC[C@@H](c2cc(Nc3ccc4c(c3F)CS(=O)(=O)N4)n[nH]2)C1` (relative stereo) [Example 438, cis-3-(3-((4-fluoro-2,2-dioxido-1,3-dihydrobenzo[c]isothiazol-5-yl)amino)-1H-pyrazol-5-yl)cyclopentyl(3,3,3-trifluoropropyl)carbamate], the results for the IC50 against CDK1/Cyclin B1 and at CDK2/Cyclin E1 were 583 nM and 4.7 nM, respectively.
The matching figures for `CC(C)(C)NC(=O)O[C@H]1CC[C@@H](c2cc(Nc3ccc4c(c3F)CCS(=O)(=O)N4)n[nH]2)C1` [Example 463, (1S,3R)-3-(3-((5-fluoro-2,2-dioxido-3,4-dihydro-1H-benzo[c][1,2]thiazin-6-yl)amino)-1H-pyrazol-5-yl)cyclopentyl tert-butylcarbamate]: 140 nM and 0.4 nM.
As to `CCC(=O)CNC(=O)O[C@H]1CC[C@@H](c2cc(Nc3ccc4c(c3F)CS(=O)(=O)N4)n[nH]2)C1` (relative stereo) [Example 432, cis-3-(3-((4-fluoro-2,2-dioxido-1,3-dihydrobenzo[c]isothiazol-5-yl)amino)-1H-pyrazol-5-yl)cyclopentyl(2-oxobutyl)carbamate], the figures for the IC50 against CDK1/Cyclin B1 and against CDK2/Cyclin E1 were 1320 nM and 23 nM, respectively.
Turning to `CCCNC(=O)O[C@H]1CC[C@@H](c2cc(Nc3ccc4c(c3F)CS(=O)(=O)N4CC(C)(C)O)n[nH]2)C1` [Example 433b], the figures for the IC50 at CDK1/Cyclin B1 and against CDK2/Cyclin E1 were 1450 nM and 18 nM, respectively.
Regarding `O=C(NC12CC(C1)C2)O[C@H]1CC[C@@H](c2cc(Nc3ccc4c(c3F)CS(=O)(=O)N4)n[nH]2)C1` (relative stereo) [Example 448, cis-3-(3-((4-fluoro-2,2-dioxido-1,3-dihydrobenzo[c]isothiazol-5-yl)amino)-1H-pyrazol-5-yl)cyclopentyl bicyclo[1.1.1]pentan-1-ylcarbamate], the values for the IC50 against CDK1/Cyclin B1 and on CDK2/Cyclin E1 were 65 nM and 1.1 nM, respectively.
The matching figures for `CN1c2ccc(Nc3cc([C@@H]4CC[C@H](OC(=O)NC(C)(C)C)C4)[nH]n3)c(F)c2CS1(=O)=O` (relative stereo) [Example 453, cis-3-(3-((4-fluoro-1-methyl-2,2-dioxido-1,3-dihydrobenzo[c]isothiazol-5-yl)amino)-1H-pyrazol-5-yl)cyclopentyl tert-butylcarbamate]: 446 nM and 0.9 nM.
With `CN(C(=O)O[C@H]1CC[C@@H](c2cc(Nc3ccc4c(c3F)CNS4(=O)=O)n[nH]2)C1)C1CCOC1` (relative stereo) [Example 437, cis-3-(3-((4-fluoro-1,1-dioxido-2,3-dihydrobenzo[d]isothiazol-5-yl)amino)-1H-pyrazol-5-yl)cyclopentyl methyl(tetrahydrofuran-3-yl)carbamate], the figures for the IC50 at CDK1/Cyclin B1 and at CDK2/Cyclin E1 were more than 10000 nM and 249 nM, respectively.
The matching figures for `CC(C)(CO)NC(=O)O[C@H]1CC[C@@H](c2cc(Nc3ccc4c(c3F)CN(C3CC3)S4(=O)=O)n[nH]2)C1` (single isomer, unassigned) [Example 359a, cis-3-(3-((2-cyclopropyl-4-fluoro-1,1-dioxido-2,3-dihydrobenzo[d]isothiazol-5-yl)amino)-1H-pyrazol-5-yl)cyclopentyl(1-hydroxy-2-methylpropan-2-yl)carbamate]: 8020 nM and 14 nM.
On to `CN1c2ccc(Nc3cc([C@@H]4CC[C@H](OC(=O)NCC5(O)CC5)C4)[nH]n3)cc2CS1(=O)=O` (relative stereo) [Example 426, cis-3-(3-((1-methyl-2,2-dioxido-1,3-dihydrobenzo[c]isothiazol-5-yl)amino)-1H-pyrazol-5-yl)cyclopentyl((1-hydroxycyclopropyl)methyl)carbamate], for which the IC50 came to 4870 nM on CDK1/Cyclin B1 and 51 nM on CDK2/Cyclin E1.
Consider `CCCNC(=O)O[C@H]1CC[C@@H](c2cc(Nc3ccc4c(c3F)CCS(=O)(=O)N4)n[nH]2)C1` (relative stereo) [Example 460, cis-3-(3-((5-fluoro-2,2-dioxido-3,4-dihydro-1H-benzo[c][1,2]thiazin-6-yl)amino)-1H-pyrazol-5-yl)cyclopentyl propylcarbamate], for which the figures for the IC50 on CDK1/Cyclin B1 and against CDK2/Cyclin E1 were 593 nM and 3.1 nM, respectively.
Turning to `CC1(NC(=O)O[C@H]2CC[C@@H](c3cc(Nc4cc5c(cc4F)S(=O)(=O)NC5)n[nH]3)C2)CCOC1` (relative stereo) [Example 450, cis-3-(3-((6-fluoro-1,1-dioxido-2,3-dihydrobenzo[d]isothiazol-5-yl)amino)-1H-pyrazol-5-yl)cyclopentyl(3-methyltetrahydrofuran-3-yl)carbamate], the IC50 against CDK1/Cyclin B1 was found to be 6180 nM; against CDK2/Cyclin E1, 7.6 nM.
On to `O=C(NC1CCOC1)O[C@H]1CC[C@@H](c2cc(Nc3ccc4c(c3F)CS(=O)(=O)N4C3CC3)n[nH]2)C1` (relative stereo) [Example 429, cis-3-(3-((1-cyclopropyl-4-fluoro-2,2-dioxido-1,3-dihydrobenzo[c]isothiazol-5-yl)amino)-1H-pyrazol-5-yl)cyclopentyl(tetrahydrofuran-3-yl)carbamate], for which the IC50 against CDK1/Cyclin B1 was more than 10000 nM; on CDK2/Cyclin E1, 133 nM.
Regarding `CC1(NC(=O)O[C@H]2CC[C@@H](c3cc(Nc4cc5c(cc4F)S(=O)(=O)NC5)n[nH]3)C2)CCC1` (relative stereo) [Example 445, cis-3-(3-((6-fluoro-1,1-dioxido-2,3-dihydrobenzo[d]isothiazol-5-yl)amino)-1H-pyrazol-5-yl)cyclopentyl(1-methylcyclobutyl)carbamate], the values for the IC50 on CDK1/Cyclin B1 and against CDK2/Cyclin E1 were 1050 nM and 1.8 nM, respectively.
With `O=C(NC1CCOC1)O[C@H]1CC[C@@H](c2cc(Nc3ccc4c(c3)CS(=O)(=O)N4)n[nH]2)C1` (relative stereo) [Example 428, cis-3-(3-((2,2-dioxido-1,3-dihydrobenzo[c]isothiazol-5-yl)amino)-1H-pyrazol-5-yl)cyclopentyl(tetrahydrofuran-3-yl)carbamate], the IC50 was 4850 nM at CDK1/Cyclin B1 and 21 nM against CDK2/Cyclin E1.
In the case of `CN1c2ccc(Nc3cc([C@@H]4CC[C@H](OC(=O)NCC(C)(C)O)C4)[nH]n3)c(F)c2CS1(=O)=O` (single isomer, unassigned) [Example 330b, cis-3-(3-((4-fluoro-1-methyl-2,2-dioxido-1,3-dihydrobenzo[c]isothiazol-5-yl)amino)-1H-pyrazol-5-yl)cyclopentyl(2-hydroxy-2-methylpropyl)carbamate], the IC50 at CDK1/Cyclin B1 is 4090 nM; on CDK2/Cyclin E1, 24 nM.
For `CC(C)NC(=O)O[C@H]1CC[C@@H](c2cc(Nc3cc4c(cn3)S(=O)(=O)NC4)n[nH]2)C1` (relative stereo) [Example 425, cis-3-(3-((1,1-dioxido-2,3-dihydroisothiazolo[5,4-c]pyridin-5-yl)amino)-1H-pyrazol-5-yl)cyclopentyl isopropylcarbamate], the IC50 against CDK1/Cyclin B1 is more than 10000 nM; against CDK2/Cyclin E1, 1950 nM.
Taken in the same sequence, the figures for `CC(C)(CO)NC(=O)O[C@H]1CC[C@@H](c2cc(Nc3cc4c(cc3F)S(=O)(=O)NC4)n[nH]2)C1` (relative stereo) [Example 444, cis-3-(3-((6-fluoro-1,1-dioxido-2,3-dihydrobenzo[d]isothiazol-5-yl)amino)-1H-pyrazol-5-yl)cyclopentyl(1-hydroxy-2-methylpropan-2-yl)carbamate] were 7870 nM and 16 nM.
